Patent US11220502B2, “Sulfone compounds and derivatives for the treatment and prophylaxis of virus infection” (Hoffmann-La Roche Inc., priority 2018, dated 2022)
Like-named read-outs stand apart in the source and are kept apart here.

Legend:
[1] = biological target: T1, human TLR7 (Homo sapiens, UniProt Q9NYK1); assay: HEK293-Blue-hTLR-7 cells assay (SEAP reporter, NF-κB activation); type: cell-based; conditions: for EC50: HEK293-Blue-hTLR-7 cells, 20 hrs incubation, SEAP reporter; for Ratio (EC50(prodrug)/EC50(active form)): calculated ratio of prodrug EC50 to EC50 of corresponding active form
T1 sequence (Q9NYK1 27-1049): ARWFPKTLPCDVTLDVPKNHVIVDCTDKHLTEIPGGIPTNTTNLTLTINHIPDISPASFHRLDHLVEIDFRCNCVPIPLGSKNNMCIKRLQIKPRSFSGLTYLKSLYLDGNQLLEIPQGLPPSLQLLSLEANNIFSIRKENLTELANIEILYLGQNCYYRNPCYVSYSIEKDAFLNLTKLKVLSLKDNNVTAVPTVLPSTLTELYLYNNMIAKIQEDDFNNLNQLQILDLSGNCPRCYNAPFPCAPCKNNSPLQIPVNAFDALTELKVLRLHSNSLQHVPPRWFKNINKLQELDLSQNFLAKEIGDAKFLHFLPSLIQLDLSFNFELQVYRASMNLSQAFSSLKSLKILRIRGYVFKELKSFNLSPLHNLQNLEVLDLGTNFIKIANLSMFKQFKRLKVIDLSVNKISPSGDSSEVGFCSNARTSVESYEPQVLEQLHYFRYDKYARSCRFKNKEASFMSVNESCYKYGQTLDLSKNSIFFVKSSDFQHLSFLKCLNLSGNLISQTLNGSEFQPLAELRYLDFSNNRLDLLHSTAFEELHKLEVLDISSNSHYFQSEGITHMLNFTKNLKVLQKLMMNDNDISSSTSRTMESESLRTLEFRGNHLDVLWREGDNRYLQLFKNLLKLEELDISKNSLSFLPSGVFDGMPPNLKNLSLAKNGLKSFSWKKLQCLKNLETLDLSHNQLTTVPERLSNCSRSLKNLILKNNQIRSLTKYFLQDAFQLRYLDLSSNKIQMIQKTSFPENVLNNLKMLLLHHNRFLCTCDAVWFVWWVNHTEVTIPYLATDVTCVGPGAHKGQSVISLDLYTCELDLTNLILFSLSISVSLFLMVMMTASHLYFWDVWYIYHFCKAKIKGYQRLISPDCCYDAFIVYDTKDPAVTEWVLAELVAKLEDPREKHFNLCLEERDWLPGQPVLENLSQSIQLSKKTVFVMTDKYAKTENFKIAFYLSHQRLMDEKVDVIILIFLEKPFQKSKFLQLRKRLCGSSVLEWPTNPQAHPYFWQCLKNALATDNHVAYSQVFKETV
Description: HEK293-Blue-hTLR-7 Cells Assay
A stable HEK293-Blue-hTLR-7 cell line was purchased from InvivoGen (Cat. #: hkb-ht1r7, San Diego, Calif., USA). These cells were designed for studying the stimulation of human TLR7 by monitoring the activation of NF-κB. A SEAP (secreted embryonic alkaline phosphatase) reporter gene was placed under the control of the IFN-β minimal promoter fused to five NF-κB and AP-1-binding sites. The SEAP was induced by activating NF-κB and AP-1 via stimulating HEK-Blue hTLR7 cells with TLR7 ligands. Therefore the reporter expression was regulated by the NF-κB promoter upon stimulation of human TLR7 for 20 hrs. The cell culture supernatant SEAP reporter activity was determined using QUANTI-Blue™ kit (Cat. #: rep-qb1, Invivogen, San Diego, Calif., USA) at a wavelength of 640 nm, a detection medium that turns purple or blue in the presence of alkaline phosphatase.
HEK293-Blue-hTLR7 cells were incubated at a density of 250,000˜450,000 cells/mL in a volume of 180 μL in a 96-well plate in Dulbecco's Modified Eagle's medium (DMEM) containing 4.5 g/L glucose, 50 U/mL penicillin, […], […], 2 mM L-glutamine, 10% (V/V) heat-inactivated fetal bovine serum for 24 hrs. Then the HEK293-Blue-hTLR-7 cells were incubated with addition of 20 μL test compound in a serial dilution in the presence of final DMSO at 1% and perform incubation under 37° C. in a CO2 incubator for 20 hrs. Then 20 μL of the supernatant from each well was incubated with 180 μL Quanti-blue substrate solution at 37° C. for 2 hrs and the absorbance was read at 620˜655 nm using a spectrophotometer. The signalling pathway that TLR7 activation leads to downstream NF-κB activation has been widely accepted, and therefore similar reporter assay was also widely used for evaluating TLR7 agonist (Tsuneyasu Kaisho and Takashi Tanaka, Trends in Immunology, Volume 29, Issue 7, July 2008, […]; Hiroaki Hemmi et al, Nature Immunology 3, 196-200 (2002)).
The Compounds and Examples of the present invention were tested in HEK293-hTLR-7 assay for their TLR7 agonism activity as described herein and results are listed in Table 1. […] The calculated ratio of EC50(prodrug)/EC50(active form) were within the range from 27.7 to about 8233.

[2] = Single dose PK study in Male Wister-Han Rats; type: in vivo
Description: Single dose PK study in Male Wister-Han Rats The single dose PK in Male Wister-Han Rats was performed to assess pharmacokinetic properties of tested compounds. Two groups of animals were dosed via Gavage (POE) of the respective compound. Blood samples (approximately 20 μL) were collected via Jugular vein or an alternate site at 15 min, 30 min, 1 h, 2 h, 4 h, 7 h and 24 h post-dose groups. Blood samples were placed into tubes containing EDTA-K2 anticoagulant and centrifuged at 5000 rpm for 6 min at 4° C. to separate plasma from the samples. After centrifugation, the resulting plasma was transferred to clean tubes for bioanalysis of both prodrug and active form on LC/MS/MS. In the groups that prodrugs were dosed, the concentration of prodrugs in the plasma samples was under the detection limit. The “tested compound” in Table 3 was used as the internal standard for testing the metabolite (active form) of “dose compound” in vivo. The pharmacokinetic parameters were calculated using non-compartmental module of WinNonlin® Professional 6.2. The peak concentration (Cmax) was recorded directly from experimental observations. The area under the plasma concentration-time curve ([…]) was calculated using the linear trapezoidal rule up to the last detectable concentration. Cmax and AUC0-last are two critical PK parameters related to the in vivo efficacy of the tested compound. […]

[3] = prodrug, read-out: HEK293-hTLR-7 EC50 (Prodrug)
[4] = corresponding active form, read-out: HEK293-hTLR-7 EC50 (Active form)

EC50 [1, 3] [µM]	Ratio (EC50(prodrug)/EC50(active form)) [1]	AUC0-last folds increase comparing with Compound 8a ([2]; oral administration, rats, prodrug versus active form) [folds]	EC50 [1, 4] [µM]	Cmax (nM) ([2]; 5 mg/kg oral dosing, male Wister-Han rats, plasma, tested compound Compound 8a (active form))	SMILES
494	8233				CCN(C)C(=O)n1c(=O)n(Cc2ccc(F)cc2)c2nc(S(=O)(=O)CC)nc(N)c21 [Example 19, 6-Amino-N-ethyl-2-ethylsulfonyl-9-[(4-fluorophenyl)methyl]-N-methyl-8-oxo-purine-7-carboxamide]
13.1	570				CCCN(C)C(=O)n1c(=O)n(Cc2ccc(Br)cc2)c2nc(S(=O)(=O)CC)nc(N)c21 [Example 22, 6-Amino-9-[(4-bromophenyl)methyl]-2-ethylsulfonyl-N-methyl-N-propyl-8-oxo-purine-7-carboxamide]
			0.083	Not detected	CCS(=O)(=O)c1nc(N)c2[nH]c(=O)n(Cc3ccc(Cl)cc3)c2n1 [Compound 8a, 6-amino-9-[(4-chlorophenyl)methyl]-2-ethylsulfonyl-7H-purin-8-one]
			0.023		CCS(=O)(=O)c1nc(N)c2[nH]c(=O)n(Cc3ccc(Br)cc3)c2n1 [Compound 22a, 6-Amino-2-ethylsulfonyl-9-[(4-bromophenyl)methyl]-7H-purin-8-one]

The next lines start with the compound.

SMILES	EC50 [1, 3] [µM]	Ratio (EC50(prodrug)/EC50(active form)) [1]	AUC0-last folds increase comparing with Compound 8a ([2]; oral administration, rats, prodrug versus active form) [folds]	EC50 [1, 4] [µM]	Cmax (nM) ([2]; 5 mg/kg oral dosing, male Wister-Han rats, plasma, tested compound Compound 8a (active form))
CCCN(C)C(=O)n1c(=O)n(Cc2ccc(Cl)cc2)c2nc(S(=O)(=O)CC)nc(N)c21 [Example 8, 6-Amino-9-[(4-chlorophenyl)methyl]-2-ethylsulfonyl-N-methyl-8-oxo-N-propyl-purine-7-carboxamide]	14.9	179.5	14.5		
CCN(C)C(=O)n1c(=O)n(Cc2ccc(C)cc2)c2nc(S(=O)(=O)CC)nc(N)c21 [Example 16, 6-Amino-N-ethyl-2-ethylsulfonyl-N-methyl-8-oxo-9-(p-tolylmethyl)purine-7-carboxamide]	43.9	445.9			
CCCS(=O)(=O)c1nc(N)c2c(n1)n(Cc1ccc(C)cc1)c(=O)n2C(=O)N(C)CC [Example 13, 6-Amino-N-ethyl-N-methyl-8-oxo-2-propylsulfonyl-9-(p-tolylmethyl)purine-7-carboxamide]	9.6	147.7			
CCCN(C)C(=O)n1c(=O)n(Cc2ccc(F)cc2)c2nc(S(=O)(=O)CC)nc(N)c21 [Example 18, 6-Amino-2-ethylsulfonyl-9-[(4-fluorophenyl)methyl]-N-methyl-8-oxo-N-propyl-purine-7-carboxamide]	2.4	40			
